Here are results for 27 compounds from US10968217B2, “Tetrahydropyridopyrimidines for the treatment and prophylaxis of hepatitis B virus infection” (Hoffmann-La Roche Inc., priority 2016, dated 2021).

One may read the IC50 as the concentration that gives 50% inhibition.

SMILES strings stand for the structures.

This test concerns HBsAg. Nature of the test: HBsAg assay (CLIA of secreted HBsAg in HepG2.2.15 culture supernatant). Format: cell-based, HBV. Particulars: Hepatitis B virus, HepG2.2.15, read-out: IC50 (HBsAg assay). How it is done: HepG2.2.15 cells (Acs et al. Proc Natl Acad Sci USA, 84, (1987), 4641-4), a constitutively HBV-expressing cell line were cultured in DMEM+Glutamax-I medium (Invitrogen, Carlsbad, Calif., USA), supplemented with 10% fetal bovine serum (Invitrogen) and G418 (Invitrogen) at a final concentration of 200 mg/L and maintained in 5% CO2 at 37° C.
HepG2.2.15 cells were seeded in duplicate into white, 96-well plates at 1.5×10^4 cells/well. The cells were treated with a three-fold serial dilution series of the compounds in DMSO. The final DMSO concentration in all wells was 1% and DMSO was used as no drug control.
The HBsAg chemiluminescence immunoassay (CLIA) kit (Autobio Diagnostics Co., Zhengzhou, China, Catalog number: CL0310-2) was used to measure the levels of secreted HBV antigens semi-quantitatively. For the detection 50 μL/well culture supernatant was used and HBsAg was quantified using HBsAg chemiluminescence immunoassay (CLIA) kit (Autobio Diagnostics Co., Zhengzhou, China, Catalog number: CL0310-2), 50 μL of the supernatant was transferred to the CLIA assay plate and 50 μL of enzyme conjugate reagent was added into each well. The plates were sealed and gently agitated for 1 hour at room temperature. The supernatant-enzyme-mixture was discarded and wells were washed 6 times with 300 μL of PBS. The residual liquid was removed by plating the CLIA plate right side down on absorbent tissue paper. 25 μL of substrates A and B were added to each well. Luminance was measured using a luminometer (Mithras LB 940 Multimode Microplate Reader) after 10 minutes incubation. Dose-response curves were generated and the IC50 value was extrapolated by using the E-WorkBook Suite (ID Business Solutions Ltd., Guildford, UK). The IC50 was defined as the compound concentration at which HBsAg secretion was reduced by 50% compared to the no drug control.
Consider `Cc1csc(C(=O)N2CCc3nc(-c4ccccn4)ncc3C2)c1` [Example 32, (4-Methyl-2-thienyl)-[2-(2-pyridyl)-7,8-dihydro-5H-pyrido[4,3-d]pyrimidin-6-yl]methanone], for which the half-inhibitory concentration (IC50) stood at 1.67 µM. The figure for `CC1c2cnc(-c3ncccn3)nc2CCN1C(=O)c1n[nH]c2ccccc12` (stereo not drawn) [Example 63, 1H-indazol-3-yl-(5-methyl-2-pyrimidin-2-yl-7,8-dihydro-5H-pyrido[4,3-d]pyrimidin-6-yl)methanone] is 0.45 µM; for `COCCCOc1ccc(C(=O)N2CCc3nc(-c4ccccn4)ncc3C2)cc1OC` [Example 26, [3-Methoxy-4-(3-methoxypropoxy)phenyl]-[2-(2-pyridyl)-7,8-dihydro-5H-pyrido[4,3-d]pyrimidin-6-yl]methanone] it is 3.18 µM. For `O=C(c1cc(F)cc(F)c1)N1CCc2nc(-c3ccccn3)ncc2C1` [Example 37, (3,5-Difluorophenyl)-[2-(2-pyridyl)-7,8-dihydro-5H-pyrido[4,3-d]pyrimidin-6-yl]methanone], the IC50 turned out to be 25.8 µM.

`CC1c2cnc(-c3ccccn3)nc2CCN1C(=O)c1cc2ccccc2s1` (stereo not drawn) [Example 48, Benzothiophen-2-yl-[5-methyl-2-(2-pyridyl)-7,8-dihydro-5H-pyrido[4,3-d]pyrimidin-6-yl]methanone]: the IC50 was found to be 0.472 µM. The result for `O=C(c1ccc(O)c(Cl)c1)N1CCc2nc(-c3ccccn3)ncc2C1` [Example 23, (3-chloro-4-hydroxy-phenyl)-[2-(2-pyridyl)-7,8-dihydro-5H-pyrido[4,3-d]pyrimidin-6-yl]methanone] reads 21.2 µM; that for `Cc1cc(C(=O)N2CCc3nc(-c4ccccn4)ncc3C2)no1` [Example 33, (5-Methylisoxazol-3-yl)-[2-(2-pyridyl)-7,8-dihydro-5H-pyrido[4,3-d]pyrimidin-6-yl]methanone], 8.11 µM; that for `COCCCOc1ccc(C(=O)N2CCc3nc(-c4ccccn4)ncc3C2)cc1F` [Example 15, [3-Fluoro-4-(3-methoxypropoxy)phenyl]-[2-(2-pyridyl)-7,8-dihydro-5H-pyrido[4,3-d]pyrimidin-6-yl]methanone], 4.89 µM. Consider `COCCOc1ccc(C(=O)N2CCc3nc(-c4ccccn4)ncc3C2)cc1F` [Example 14, [3-Fluoro-4-(2-methoxyethoxy)phenyl]-[2-(2-pyridyl)-7,8-dihydro-5H-pyrido[4,3-d]pyrimidin-6-yl]methanone], for which the IC50 was 20 µM. The figure for `COc1ccc(C(=O)N2CCc3nc(-c4ccccn4)ncc3C2)cc1` [Example 39, (4-Methoxyphenyl)-[2-(2-pyridyl)-7,8-dihydro-5H-pyrido[4,3-d]pyrimidin-6-yl]methanone] is 10.6 µM; for `COc1cc(C(=O)N2CCc3nc(-c4ccccn4)ncc3C2)cc(OC)c1OC` [Example 16, [2-(2-Pyridyl)-7,8-dihydro-5H-pyrido[4,3-d]pyrimidin-6-yl]-(3,4,5-trimethoxyphenyl)methanone] it is 8.23 µM; for `O=C(c1ccccc1)N1CCc2nc(-c3ccccn3)ncc2C1` [Example 4, Phenyl-[2-(2-pyridyl)-7,8-dihydro-5H-pyrido[4,3-d]pyrimidin-6-yl]methanone] it is 24.3 µM. Regarding `COc1cc(Cl)cc(C(=O)N2CCc3nc(-c4ccccn4)ncc3C2)c1` [Example 18, (3-Chloro-5-methoxy-phenyl)-[2-(2-pyridyl)-7,8-dihydro-5H-pyrido[4,3-d]pyrimidin-6-yl]methanone], the IC50 worked out at 10 µM. As for `COc1ccc(C(=O)N2CCc3nc(-c4ccccn4)ncc3C2)cn1` [Example 36, (6-Methoxy-3-pyridyl)-[2-(2-pyridyl)-7,8-dihydro-5H-pyrido[4,3-d]pyrimidin-6-yl]methanone], the half-maximal inhibitory concentration (IC50) came out at 3.97 µM. The result for `COCCCOc1ccc(C(=O)N2CCc3nc(-c4ncccn4)ncc3C2C)cc1Cl` (stereo not drawn) [Example 40, [3-Chloro-4-(3-methoxypropoxy)phenyl]-(5-methyl-2-pyrimidin-2-yl-7,8-dihydro-5H-pyrido[4,3-d]pyrimidin-6-yl)methanone] reads 1.93 µM; that for `CC1c2cnc(-c3ccccn3)nc2CCN1C(=O)c1ccc2cc[nH]c2c1` (stereo not drawn) [Example 46, 1H-ndol-6-yl-[5-methyl-2-(2-pyridyl)-7,8-dihydro-5H-pyrido[4,3-d]pyrimidin-6-yl]methanone], 2.08 µM; that for `CC1c2cnc(-c3ncccn3)nc2CCN1C(=O)c1nn(Cc2ccccc2)c2ccccc12` (stereo not drawn) [Example 65, (1-Benzylindazol-3-yl)-(5-methyl-2-pyrimidin-2-yl-7,8-dihydro-5H-pyrido[4,3-d]pyrimidin-6-yl)methanone], 0.39 µM. For the compound `CC1c2cnc(-c3ccccn3)nc2CCN1C(=O)c1ccsc1` (stereo not drawn) [Example 44, [5-Methyl-2-(2-pyridyl)-7,8-dihydro-5H-pyrido[4,3-d]pyrimidin-6-yl]-(3-thienyl)methanone], the IC50 was found to be 2.46 µM. For the compound `Cc1ccc(C(=O)N2CCc3nc(-c4ccccn4)ncc3C2)cc1F` [Example 28, (3-Fluoro-4-methyl-phenyl)-[2-(2-pyridyl)-7,8-dihydro-5H-pyrido[4,3-d]pyrimidin-6-yl]methanone], the IC50 is 9.34 µM. Regarding `Cc1cc(C(=O)N2CCc3nc(-c4ccccn4)ncc3C2)ccc1F` [Example 20, (4-Fluoro-3-methyl-phenyl)-[2-(2-pyridyl)-7,8-dihydro-5H-pyrido[4,3-d]pyrimidin-6-yl]methanone], the IC50 was 7.85 µM.

`CC1c2cnc(-c3ccccn3)nc2CCN1C(=O)c1cncs1` (stereo not drawn) [Example 54, [5-Methyl-2-(2-pyridyl)-7,8-dihydro-5H-pyrido[4,3-d]pyrimidin-6-yl]-thiazol-5-yl-methanone]: the IC50 stood at 11.5 µM. As for `Cc1ccc(C(=O)N2CCc3nc(-c4ccccn4)ncc3C2C)s1` (stereo not drawn) [Example 43, [5-Methyl-2-(2-pyridyl)-7,8-dihydro-5H-pyrido[4,3-d]pyrimidin-6-yl]-(5-methyl-2-thienyl)methanone], the IC50 was 0.326 µM. The result for `O=C(c1cccc(C(F)(F)F)c1)N1CCc2nc(-c3ccccn3)ncc2C1` [Example 6, [2-(2-Pyridyl)-7,8-dihydro-5H-pyrido[4,3-d]pyrimidin-6-yl]-[3-(trifluoromethyl)phenyl]methanone] reads 18.7 µM; that for `O=C(c1ccc(F)c(O)c1)N1CCc2nc(-c3ccccn3)ncc2C1` [Example 11, (4-Fluoro-3-hydroxy-phenyl)-[2-(2-pyridyl)-7,8-dihydro-5H-pyrido[4,3-d]pyrimidin-6-yl]methanone], 21 µM. The result for `CCC1c2cnc(-c3ccccn3)nc2CCN1C(=O)c1ccc(OC)c(OC)c1` (single isomer, unassigned; (-)) [Example 35, (−)-(3,4-Dimethoxyphenyl)-[5-ethyl-2-(2-pyridyl)-7,8-dihydro-5H-pyrido[4,3-d]pyrimidin-6-yl]methanone] reads 2.72 µM. On to `CC1c2cnc(-c3ccccn3)nc2CCN1C(=O)c1cccs1` (stereo not drawn) [Example 49, [5-Methyl-2-(2-pyridyl)-7,8-dihydro-5H-pyrido[4,3-d]pyrimidin-6-yl]-(2-thienyl)methanone], for which the IC50 is 1.11 µM. For the compound `CC1c2cnc(-c3ccccn3)nc2CCN1C(=O)c1nccn1C` (stereo not drawn) [Example 57, (1-Methylimidazol-2-yl)-[5-methyl-2-(2-pyridyl)-7,8-dihydro-5H-pyrido[4,3-d]pyrimidin-6-yl]methanone], the IC50 was 3.23 µM.
